Experimental data: patent US20020137929A1, “1 - (3-heterocyclylphenyl) isothiourea, -isourea, -guanidine and -amidine herbicidal agents” (Intellectual Property Department, BASF Aktiengesellschaft, priority 1998, published 2002)

Assays:
[1] = tested on: IPOSS (Morningglory Spp.); assay: Postemergence herbicidal evaluation; assay type: in vivo, Ipomoea Spp.
Protocol: In the tests, seedling plants are grown in jiffy flats for about two weeks. The test compounds are dispersed in 50/50 acetone/water mixtures containing 0.5% TWEEN®20, a polyoxyethylene sorbitan monolaurate surfactant of Atlas Chemical Industries, in sufficient quantities to provide the equivalent of about 0.0156 kg to 0.500 kg per hectare of active compound when applied to the plants through a spray nozzle operating at 40 psi for a predetermined time. After spraying, the plants are placed on greenhouse benches and are cared for in accordance with conventional greenhouse procedures. From four to five weeks after treatment, the seedling plants are examined and rated according to the rating system set forth below. Where more than one test is involved for a given compound, the data are averaged.
Plant species employed in these evaluations are reported by header abbreviation, common name and scientific name.
(§1) Results of herbicide evaluation are expressed on a rating scale (0-9). The scale is based upon a visual observation of plant stand, vigor, malformation, size, chlorosis and overall plant appearance as compared with a control.

ECHCG (Barnyardgrass) = assay: Postemergence herbicidal evaluation; assay type: in vivo, Echinochloa crus-galli; conditions: postemergence
Procedure, shortened: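 Scores (0–9) reflect plant stand, vigor, malformation, size, chlorosis and general appearance relative to control, read 4 to 5 weeks after treatment and averaged where tests were repeated. Application: about 0.0156–0.500 kg/ha sprayed at 40 psi onto two-week seedlings.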

[2] = tested on: CHEAL (Lambsquarters, Common); assay: Preemergence herbicidal evaluation; assay type: in vivo, Chenopodium album; conditions: rated 4-5 weeks after treatment
Procedure, shortened: (§2)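 Greenhouse preemergence test: seed-soil mix sown on ~1 inch soil; aqueous acetone spray at equivalent of ~0.0156–0.500 kg/ha; greenhouse-held and watered; scored 0–9 visually at 4–5 weeks.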

[3] = tested on: IPOSS (Morningglory Spp.); assay: Preemergence herbicidal evaluation; assay type: in vivo, Ipomoea Spp.; conditions: rated 4-5 weeks after treatment
Description: as §1
The preemergence herbicidal activity of the test compounds of the present invention is exemplified by the following tests in which the seeds of a variety of monocotyledonous and dicotyledonous plants are separately mixed with potting soil and planted on top of approximately one inch of soil in separate pint cups. After planting, the cups are sprayed with the selected aqueous acetone solution containing test compound in sufficient quantity to provide the equivalent of about 0.0156 to 0.500 kg per hectare of test compound per cup. The treated cups are then placed on greenhouse benches, watered and cared for in accordance with conventional greenhouse procedures. From four to five weeks after treatment, the tests are terminated and each cup is examined and rated according to the rating system provided in Example 37.
The compounds evaluated are reported by compound number given in Example 37.

ORYSAT (Rice, Tebonnet) [4] = assay: Preemergence herbicidal evaluation; assay type: in vivo, Oryza sativa, (L.) Tebonnet; conditions: rated 4-5 weeks after treatment
Procedure, shortened: as §2

[5] = tested on: ECHORC (Watergrass (Calif.)); assay: Preemergence weed control under flooded paddy conditions; assay type: in vivo, Echinochloa oryzoides; conditions: rated 3-4 weeks after treatment
Procedure, shortened: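 Silt loam, seeds in top 0.5 cm; flood held 1.5-3 cm; test cpd as acetone/water 50/50 into flood water, ~0.0313-0.500 kg/ha a.i.; greenhouse 3-4 wk; visual 0-9 score vs control.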

CYPSE (Flatsedge) = assay: as above; assay type: in vivo, Cyperus serotinus; conditions: rated 3-4 weeks after treatment
Procedure, shortened: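 Flooded-pot preemergence screen with silt loam and seeds in the upper 0.5 cm. Dose about 0.0313 to 0.500 kg/ha, delivered into flood water; visual 0-9 score after 3 to 4 weeks.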

ORYSAT (Rice, Tebonnet) [6] = assay: Rice tolerance to post-transplant applications, flooded paddy conditions (Table III); assay type: in vivo, Oryza sativa, (L.) Tebonnet; conditions: post-transplant rice, flooded paddy, rated 3-4 weeks after treatment
Procedure, shortened: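 Two ten-day-old Tebonnet seedlings transplanted into flooded silt loam (water 1.5 to 3 cm above soil); three days later the water surface was treated with compound in aqueous/acetone 50/50 at about 0.0313 to 0.500 kg/ha. Visual 0-9 injury rating versus control after three to four weeks in greenhouse.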

MOOVA (Monochoria) = assay: Postemergence weed control under flooded paddy conditions; assay type: in vivo, Monochoria vaginalis; conditions: postemergence weeds, 3-4 weeks after treatment
Procedure, shortened: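 With weeds 3 to 5 cm tall and rice at the 1.5 to 2.5 leaf stage, containers were flooded and water held 1.5 to 3 cm above soil. Compounds in 50/50 v/v aqueous/acetone went into the flood water at about 0.0313 to 0.500 kg/ha a.i. Effects were visually rated 0–9 against controls after three to four weeks in the greenhouse.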

ORYSAT (Rice, Tebonnet) [7] = assay: Rice tolerance to post-transplant applications, flooded paddy conditions (Table IV); assay type: in vivo, Oryza sativa, (L.) Tebonnet; conditions: flooded paddy, post-transplant rice, 3-4 weeks after treatment
Procedure, shortened: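 Containers holding 3–5 cm weeds and rice at 1.5–2.5 leaves are flooded to 1.5–3 cm above soil. Compound in 50/50 v/v aqueous/acetone is then added directly to the water, about 0.0313–0.500 kg/ha. Plants are kept in the greenhouse and rated 0–9 visually at 3–4 weeks.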

Compound: O=C1CSC(=Nc2cc(N3C(=O)C4=C(CCCC4)C3=O)c(F)cc2Cl)N1c1ccccc1 [Compound 3, N-{4-chloro-2-fluoro-5-[(4-oxo-3-phenyl-2-thiazolidinylidene)amino]phenyl}-1-cyclohexene-1,2-dicarboximide]
- IPOSS herbicidal rating ([1]; rate 0.0313 kg/ha): 2.0
- IPOSS herbicidal rating ([1]; rate 0.0625 kg/ha): 4.0
- IPOSS herbicidal rating ([1]; rate 0.1250 kg/ha): 9.0
- IPOSS herbicidal rating ([1]; rate 0.2500 kg/ha): 8.0
- IPOSS herbicidal rating ([1]; rate 0.5000 kg/ha): 9.0
- ECHCG herbicidal rating (ECHCG (Barnyardgrass); rate 0.0157 kg/ha): 0.0
- ECHCG herbicidal rating (ECHCG (Barnyardgrass); rate 0.0313 kg/ha): 0.0
- ECHCG herbicidal rating (ECHCG (Barnyardgrass); rate 0.0625 kg/ha): 0.0
- ECHCG herbicidal rating (ECHCG (Barnyardgrass); rate 0.1250 kg/ha): 0.0
- ECHCG herbicidal rating (ECHCG (Barnyardgrass); rate 0.2500 kg/ha): 0.0
- ECHCG herbicidal rating (ECHCG (Barnyardgrass); rate 0.5000 kg/ha): 0.0
- CHEAL preemergence herbicidal rating ([2]; rate 0.0313 kg/ha): 6.0
- CHEAL preemergence herbicidal rating ([2]; rate 0.0625 kg/ha): 9.0
- CHEAL preemergence herbicidal rating ([2]; rate 0.1250 kg/ha): 9.0
- CHEAL preemergence herbicidal rating ([2]; rate 0.2500 kg/ha): 9.0
- CHEAL preemergence herbicidal rating ([2]; rate 0.5000 kg/ha): 9.0
- IPOSS preemergence herbicidal rating ([3]; rate 0.0313 kg/ha): 0.0
- IPOSS preemergence herbicidal rating ([3]; rate 0.0625 kg/ha): 0.0
- IPOSS preemergence herbicidal rating ([3]; rate 0.1250 kg/ha): 0.0
- IPOSS preemergence herbicidal rating ([3]; rate 0.2500 kg/ha): 2.0
- IPOSS preemergence herbicidal rating ([3]; rate 0.5000 kg/ha): 4.0
- ORYSAT preemergence herbicidal rating (ORYSAT (Rice, Tebonnet) [4]; rate 0.0313 kg/ha): 0.0
- ORYSAT preemergence herbicidal rating (ORYSAT (Rice, Tebonnet) [4]; rate 0.0625 kg/ha): 0.0
- ORYSAT preemergence herbicidal rating (ORYSAT (Rice, Tebonnet) [4]; rate 0.1250 kg/ha): 0.0
- ORYSAT preemergence herbicidal rating (ORYSAT (Rice, Tebonnet) [4]; rate 0.2500 kg/ha): 0.0
- ORYSAT preemergence herbicidal rating (ORYSAT (Rice, Tebonnet) [4]; rate 0.5000 kg/ha): 1.0
- Herbicidal rating ECHORC ([5]; 0.0625 kg/ha): 0.0
- Herbicidal rating ECHORC ([5]; 0.1250 kg/ha): 0.0
- Herbicidal rating ECHORC ([5]; 0.2500 kg/ha): 2.0
- Herbicidal rating ECHORC ([5]; 0.5000 kg/ha): 4.0
- Herbicidal rating CYPSE (CYPSE (Flatsedge); 0.0625 kg/ha): 0.0
- Herbicidal rating CYPSE (CYPSE (Flatsedge); 0.1250 kg/ha): 0.0
- Herbicidal rating CYPSE (CYPSE (Flatsedge); 0.2500 kg/ha): 0.0
- Herbicidal rating CYPSE (CYPSE (Flatsedge); 0.5000 kg/ha): 0.0
- Herbicidal rating ORYSAT (rice tolerance) (ORYSAT (Rice, Tebonnet) [6]; 0.0625 kg/ha): 0.0
- Herbicidal rating ORYSAT (rice tolerance) (ORYSAT (Rice, Tebonnet) [6]; 0.1250 kg/ha): 2.0
- Herbicidal rating ORYSAT (rice tolerance) (ORYSAT (Rice, Tebonnet) [6]; 0.2500 kg/ha): 2.0
- Herbicidal rating ORYSAT (rice tolerance) (ORYSAT (Rice, Tebonnet) [6]; 0.5000 kg/ha): 3.0
- Herbicidal rating MOOVA (MOOVA (Monochoria); rate 0.0625 kg/ha): 1.0
- Herbicidal rating MOOVA (MOOVA (Monochoria); rate 0.1250 kg/ha): 4.5
- Herbicidal rating MOOVA (MOOVA (Monochoria); rate 0.2500 kg/ha): 4.5
- Herbicidal rating MOOVA (MOOVA (Monochoria); rate 0.5000 kg/ha): 5.5
- Herbicidal rating ORYSAT (rice tolerance) (ORYSAT (Rice, Tebonnet) [7]; rate 0.0625 kg/ha): 0.0
- Herbicidal rating ORYSAT (rice tolerance) (ORYSAT (Rice, Tebonnet) [7]; rate 0.1250 kg/ha): 1.0
- Herbicidal rating ORYSAT (rice tolerance) (ORYSAT (Rice, Tebonnet) [7]; rate 0.2500 kg/ha): 1.0
- Herbicidal rating ORYSAT (rice tolerance) (ORYSAT (Rice, Tebonnet) [7]; rate 0.5000 kg/ha): 2.0
